From patent US5925769A, “Acetylenic 1,5-diarylpyrazoles as antiinflammatory agents” (Ortho Pharmaceutical, Corp., priority 1998, dated 1999)

Tests used:
[1] = target: T1, Sheep seminal vesicle (SSV) cyclooxygenase (Ovis aries, UniProt P05979); experiment: Procedure I: inhibition of sheep seminal vesicle (SSV) cyclooxygenase; type: biochemical; conditions: SSV cyclooxygenase; for IC50: read-out: Proc. I IC50; for inhibition at 10 µM: 20 min, @ 10 .quadrature.M, read-out: Proc. I % inhibition
T1 construct: Sheep seminal vesicle (SSV) cyclooxygenase (95% pure); purchased Biomol (Plymouth Meeting, PA); host or cells: sheep seminal vesicle
T1 sequence (P05979 25-600): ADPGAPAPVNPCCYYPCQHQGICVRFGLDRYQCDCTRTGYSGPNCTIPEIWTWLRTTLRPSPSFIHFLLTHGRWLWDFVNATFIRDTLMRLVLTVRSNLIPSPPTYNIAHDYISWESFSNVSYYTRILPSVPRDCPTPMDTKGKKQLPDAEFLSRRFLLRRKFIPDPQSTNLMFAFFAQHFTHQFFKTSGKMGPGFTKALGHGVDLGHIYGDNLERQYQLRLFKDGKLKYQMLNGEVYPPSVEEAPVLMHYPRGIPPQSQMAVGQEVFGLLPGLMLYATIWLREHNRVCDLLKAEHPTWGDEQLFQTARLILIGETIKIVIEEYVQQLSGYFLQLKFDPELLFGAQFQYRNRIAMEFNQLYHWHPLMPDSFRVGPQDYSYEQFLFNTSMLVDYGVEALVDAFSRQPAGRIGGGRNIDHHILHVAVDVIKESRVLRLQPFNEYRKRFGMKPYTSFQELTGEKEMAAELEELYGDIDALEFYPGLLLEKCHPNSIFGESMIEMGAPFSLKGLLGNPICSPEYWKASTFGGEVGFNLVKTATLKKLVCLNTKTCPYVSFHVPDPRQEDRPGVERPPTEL
Procedure: Procedure I was used to determine the ability of the compounds to inhibit cyclooxygenase. […] The enzyme was divided into 200 μL aliquots, snap frozen with liquid N2, and stored at -70° C. until immediately prior to use. […] The tubes were mixed on a vortex shaker, preincubated for 5 min at 37° C. prior to the initiation of the reaction. The reaction was started by the addition of [^14 C]-arachidonic acid (1-^14 C-AA, Amersham, Arlington Heights, Ill.) in 10 μL of methanol. Tubes were again vortexed and incubated in a water bath for 20 minutes after which the tubes were removed and the reaction stopped by acidification with the addition of 1 mL 2M formic acid. Lipophilic products were extracted with 3 mL chloroform and concentrated to dryness under N2. Each pellet was reconstituted with 40 μL of chloroform and spotted on a Whatman Silicon thin-layer chromatography plate and developed in a chromatography tank containing A-9 solvent (11:5:2:1 V:V:VV, ethyl acetate:trimethyl-pentane:acetic acid:double distilled-H2 O). Radioactive cyclooxygenase products (prostaglandin D2, prostaglandin E2, etc.) were measured using a Bioscan System 200 Imaging Scanner. Inhibition of enzyme activity was calculated by comparing the areas under the curve produced in the presence or absence of test compound.

[2] = target: T2, CO (Rattus norvegicus, UniProt Q63921); experiment: Procedure III: CO (PgD2) in intact RBL-1 cells; type: cell-based; conditions: calcium ionophore A 23187, read-out: Proc. III CO IC50
T2 construct: the supernatant was saved as the source of enzymes; endogenous in cells; host or cells: RBL-1 (rat basophilic leukemia) cells
T2 sequence (Q63921 27-602): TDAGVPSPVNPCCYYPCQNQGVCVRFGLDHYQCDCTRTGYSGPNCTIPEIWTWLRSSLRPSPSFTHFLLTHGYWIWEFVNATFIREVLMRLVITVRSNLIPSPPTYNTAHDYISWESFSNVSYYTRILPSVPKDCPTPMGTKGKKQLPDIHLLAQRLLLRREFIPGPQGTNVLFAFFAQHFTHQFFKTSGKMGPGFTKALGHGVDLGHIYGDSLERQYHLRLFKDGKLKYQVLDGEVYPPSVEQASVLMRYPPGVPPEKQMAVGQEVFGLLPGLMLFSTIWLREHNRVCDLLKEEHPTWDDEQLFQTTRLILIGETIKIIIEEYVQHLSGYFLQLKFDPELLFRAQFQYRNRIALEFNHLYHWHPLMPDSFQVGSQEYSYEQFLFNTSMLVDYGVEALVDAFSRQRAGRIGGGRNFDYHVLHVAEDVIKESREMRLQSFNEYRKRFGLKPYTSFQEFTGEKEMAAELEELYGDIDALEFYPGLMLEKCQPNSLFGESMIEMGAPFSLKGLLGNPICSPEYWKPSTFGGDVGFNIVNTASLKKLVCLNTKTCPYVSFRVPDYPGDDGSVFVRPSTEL
Procedure: (§1) The IC50 was determined using a curve fit in Cricket Graph (Computer Associated), which provided the equation of the regressed line used in the calculation.
(§2) In Procedure III, the ability to inhibit 5-LO and CO in intact RBL-1 cells was also evaluated. […] Cells were collected by centrifugation, washed once in HBSS, and resuspended at a concentration of 1×10^5 cells/mL. Cells were incubated in the presence of vehicle or drug then centrifuged at 800×g for 10 minutes at 4° C. The supernatant was removed by aspiration and the cells were resuspended in 0.5 mL of HBSS. […] The conversion of AA to 5-LO products was initiated by the addition of 10 μL (50 μCi) of 1-^14 C-AA. Products were isolated by acidification and extraction, followed by thin layer chromatography analysis as described above. Radioactive areas corresponding to authentic 5-LO (5-HETE) and CO (PgD2) products were quantitated by the Bioscan 2000 Imaging System and the IC50 was calculated as above.

[3] = target: T2, CO; experiment: Procedure II: CO activity in broken RBL-1 cells (homogenate supernatant); type: biochemical; conditions: RBL-1 broken cell supernatant; for inhibition at 10 µM: 20 min, @ 10 .quadrature.M, read-out: Proc. II CO % inhibition; for IC50: read-out: Proc. II CO IC50
Procedure: (§3) Procedure II was used to assess LO and CO activity. Rat basophilic leukemia cells (RBL-1; 5×10^7 viable cells/mL) were disrupted by homogenization on ice (four 20 sec bursts) with a Brinkman polytron. […] The homogenate was then centrifuged at 9,220×g for 48 minutes at 4° C. The pellet was discarded and the supernatant was saved as the source of enzymes. The supernatant was pre-incubated for five minutes at 37° C. in the presence of 2 mM of CaCl2 and compound or vehicle (1% DMSO). The conversion of AA into products by CO and LO was initiated by adding 10 μL (50 μCi) of 1-^14 C-AA to each tube and incubated at 37° C. for 20 minutes. The reaction was stopped by adjusting the pH of each sample to 3 to 3.5 with 2M formic acid. Samples were extracted with three volumes of chloroform to isolate the products of 5-LO formed during the reaction. Fractions were dried under nitrogen, then resuspended in 40 μL of chloroform and spotted onto silica gel HL plates. The plates were developed in A-9 solvent. The dried plates were analyzed using a Bioscan Imaging TLC scanner to determine the percentage of radiolabelled AA converted to 5-HETE (LO product) in each sample. The percentage of inhibition was calculated by:
(§4) [1-(5-HETE test)]/5-HETE control×100=% inhibition
as §1

[4] = target: T3, 5-LO (Rattus norvegicus, UniProt P12527); experiment: Procedure III: 5-LO (5-HETE) in intact RBL-1 cells; type: cell-based; conditions: calcium ionophore A 23187, read-out: Proc. III 5-LO IC50
T3 construct: the supernatant was saved as the source of enzymes; endogenous in cells; host or cells: RBL-1 (rat basophilic leukemia) cells
T3 sequence (P12527 1-673): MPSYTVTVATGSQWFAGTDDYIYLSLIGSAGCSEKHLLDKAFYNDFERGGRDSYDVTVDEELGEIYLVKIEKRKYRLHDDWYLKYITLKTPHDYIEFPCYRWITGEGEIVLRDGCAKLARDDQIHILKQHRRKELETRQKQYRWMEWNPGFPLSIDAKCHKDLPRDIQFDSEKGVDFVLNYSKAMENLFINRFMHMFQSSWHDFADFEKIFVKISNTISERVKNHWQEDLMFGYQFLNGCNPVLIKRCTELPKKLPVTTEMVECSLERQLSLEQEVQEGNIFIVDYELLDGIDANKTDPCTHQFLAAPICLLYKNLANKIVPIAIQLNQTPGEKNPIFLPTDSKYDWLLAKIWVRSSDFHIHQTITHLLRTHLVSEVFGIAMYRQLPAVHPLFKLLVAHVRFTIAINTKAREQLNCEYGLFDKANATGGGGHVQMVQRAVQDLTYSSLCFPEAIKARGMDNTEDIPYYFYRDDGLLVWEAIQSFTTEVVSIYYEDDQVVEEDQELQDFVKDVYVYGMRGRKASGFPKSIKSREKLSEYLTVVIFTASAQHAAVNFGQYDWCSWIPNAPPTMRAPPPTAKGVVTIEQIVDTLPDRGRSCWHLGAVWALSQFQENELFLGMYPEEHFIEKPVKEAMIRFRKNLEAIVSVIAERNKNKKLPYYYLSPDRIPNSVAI
Procedure: as §1, §2

[5] = target: T3, 5-LO; experiment: Procedure II: 5-LO activity (5-HETE) in broken RBL-1 cells (homogenate supernatant); type: biochemical; conditions: RBL-1 broken cell supernatant; for IC50: read-out: Proc. II 5-LO IC50; for inhibition at 10 µM: 20 min, @ 10 .quadrature.M, read-out: Proc. II 5-LO % inhibition
Procedure: as §3, §4, §1

Compound | IC50 [1] [nM] | IC50 [2] [nM] | inhibition at 10 µM [3] [%] | IC50 [4] [nM] | IC50 [5] [nM] | inhibition at 10 µM [1] [%] | inhibition at 10 µM [5] [%] | IC50 [3] [nM]
COc1ccc(-n2nc(C#CC(C)N(O)C(N)=O)cc2-c2ccc(Cl)cc2)cc1 (stereo not shown) [Cpd 6] | 32000 | 6200 | 0 | 3500 | 10 |  |  | 
COc1ccc(-n2nc(C#CC(C)N(O)C(=O)N3CCOCC3)cc2-c2ccc(Cl)cc2)cc1 (stereo not shown) [Cpd 10] |  | 1600 | 58 | 12000 |  | 14 | 81 | 
COc1ccc(-n2nc(C#CCN(O)C(C)=O)cc2-c2ccc(C)cc2)cc1 [Cpd 13, N-acetyl-N-(1-(1-(4-methoxyphenyl)-5-(4-methylphenyl)pyrazol-3-yl)-1-propyn-3-yl)hydroxylamine] |  | 30 | 100 | 7200 |  | 74 | 100 | 
COc1ccc(-n2nc(C#CCN(O)C(=O)c3ccncc3)cc2-c2ccc(C)cc2)cc1 [Cpd 16] |  | 5500 | 66 | 26600 |  | 17 | 89 | 
COC(=O)N(O)CC#Cc1cc(-c2ccc(C)cc2)n(-c2ccc(OC)cc2)n1 [Cpd 17, N-methoxycarbonyl-N-(1-(1-(4-methoxyphenyl)-5-(4-methylphenyl)pyrazol-3-yl)-1-propyn-3-yl)hydroxylamine] |  | 280 | 100 | 8800 |  | 74 | 100 | 
COc1ccc(-n2nc(C#CC(C)N(O)C(C)=O)cc2-c2ccc(C)cc2)cc1 (stereo not shown) [Cpd 18, N-Acetyl-N-(1-(1-(4-methoxyphenyl)-5-(4-methylphenyl)pyrazol-3-yl)-1-butyn-3-yl)hydroxylamine] | 310 | 110 |  | 13100 | 80 |  |  | 10
COc1ccc(-n2nc(C#CC(C)N(O)C(=O)C(F)(F)F)cc2-c2ccc(C)cc2)cc1 (stereo not shown) [Cpd 23, N-trifluoroacetyl-N-(1-(1-(4-methoxyphenyl)-5-(4-methylphenyl)pyrazol-3-yl)-1-butyn-3-yl)hydroxylamine] | 420 | 190 |  | 23500 | 1660 |  |  | 50

More lines, now with the values ahead:

IC50 [1] [nM] | IC50 [2] [nM] | inhibition at 10 µM [3] [%] | IC50 [4] [nM] | IC50 [5] [nM] | inhibition at 10 µM [1] [%] | inhibition at 10 µM [5] [%] | IC50 [3] [nM] | Compound
 | 70400 | 30 | 2170 |  | 0 | 91 |  | CCC(C#Cc1cc(-c2ccc(Cl)cc2)n(-c2ccc(OC)cc2)n1)N(O)C(N)=O (stereo not shown) [Cpd 11]
 | 14500 | 0 | 3900 |  | 38 | 90 |  | COc1ccc(-n2nc(C#CC(C(C)C)N(O)C(N)=O)cc2-c2ccc(Cl)cc2)cc1 (stereo not shown) [Cpd 12]
 | 60 | 100 | 3000 |  | 79 | 100 |  | CCC(=O)N(O)CC#Cc1cc(-c2ccc(C)cc2)n(-c2ccc(OC)cc2)n1 [Cpd 14]
390 | 90 |  | 5600 | 100 |  |  | 40 | COc1ccc(-n2nc(C#CC(C)N(O)C(=O)C(C)C)cc2-c2ccc(C)cc2)cc1 (stereo not shown) [Cpd 20, N-isobutyryl-N-(1-(1-(4-methoxyphenyl) -5(4-methylphenyl)pyrazol-3-yl)-1-butyn-3-yl)hydroxylamine]
1200 | 360 | 100 | 23600 |  |  | 100 |  | COc1ccc(-n2nc(C#CC(C)N(O)C(=O)CCl)cc2-c2ccc(C)cc2)cc1 (stereo not shown) [Cpd 21, N-Chloroacetyl-N-(1-(1-(4-methoxyphenyl)-5-(4-methylphenyl)pyrazol-3-yl)-1-butyn-3-yl)hydroxylamine]
2930 | 10000 | 100 | 10100 |  |  | 97 |  | CCOC(=O)CCC(=O)N(O)C(C)C#Cc1cc(-c2ccc(C)cc2)n(-c2ccc(OC)cc2)n1 (stereo not shown) [Cpd 22]
 | 3400 | 50 | 8500 |  | 66 | 71 |  | CCOC(=O)C(=O)N(O)C(C)C#Cc1cc(-c2ccc(C)cc2)n(-c2ccc(OC)cc2)n1 (stereo not shown) [Cpd 24]
